From patent publication US11092610B2, “Biomarker SBP1 for early diagnosis of kidney diseases, and use thereof” (CELLGENTEK CO., LTD., priority 2016, dated 2021)

What was measured:
SD rats = assay: Drug (cisplatin)-induced renal failure animal model; assay type: in vivo, rat; settings: 10 mg/kg I.P.
Procedure: On Day 1, Day 3 and Day 5 after the injection, protein contents in urine obtained for 24 hours were measured in rats of the cisplatin-administered experimental group and the untreated control.
(§1) The extracted proteins were dissolved, and transferred to a nitrocellulose membrane. Here, methanol was added to a transfer buffer, and the reaction was performed at 80 V for 1 hour. After the proteins were transferred, the membrane was stained with Ponceau S (within 10 seconds to 1 minute, slightly stained to see a band), and sufficiently washed with DW or PBS for blocking. Here, a blocking buffer was used by dissolving 3 to 5% bovine serum albumin (BSA) in a solution in which TWEEN™ 20 was contained in Tris-buffered saline (TBS). A primary antibody was reacted at 4° C. overnight, rinsed with a wash buffer (surfactant-containing TBS or PBS) to remove unbinding primary antibodies, and then secondary antibodies were reacted. After the secondary antibodies were reacted, unbinding secondary antibodies were rinsed with a washing buffer, and a band was identified using luminol.
A supernatant was obtained by centrifuging each urine sample at 3000 g for 15 minutes, and stored in a freezer at −80° C. Following the urine collection, experimental animals were anesthetized with carbon dioxide to collect blood from the abdominal aorta, and after natural death due to bleeding, the kidneys and liver were extracted. A supernatant was obtained by centrifuging each blood sample at 1500 g for 15 minutes, and stored in a freezer at −80° C. The obtained urine and blood samples were subjected to detection of conventional markers using a test kit corresponding to each parameter.

Sprague-Dawley rat = assay: Diabetic animal model induced by STZ administration (blood glucose, urine and renal failure markers); assay type: in vivo
Procedure: To verify a diabetic animal model induced by STZ administration according to Example 1-1 of the present invention, an experiment was carried out by designing the experimental model as described in FIG. 1A.
However, in an experimental group in which diabetic animals are treated with an antidiabetic drug, it was confirmed that a blood glucose level was decreased gradually on Day 7, Day 14 and Day 21, and decreased to almost the normal level on the last day, Day 28.
Then, it was confirmed whether renal failure occurs in a diabetic animal model induced by STZ administration. […] It can be seen that, in the anti-diabetic drug-administered group, the BUN and creatinine levels are decreased to a normal range.

rat = assay: Hepatotoxicity model (carbon tetrachloride), liver findings and urinary SBP1; assay type: in vivo
Procedure: as §1
To confirm whether urinary SBP1 is released in a hepatotoxicity model, a hepatotoxic material such as carbon tetrachloride (CCl4) was administered to a rat to induce hepatotoxicity, and then SBP1 level in urine was measured.

[1] = STZ 50 mg/kg single dose I.P., rat
[2] = after administration of hepatotoxic material
[3] = one day after administration, then decreased

N.N.[Cl][Pt][Cl] [cisplatin]
BUN compared with the control (SD rats; Day 1): no significant differences | kidney tissue damage (histology) (SD rats; Day 1): mildly damaged | serum creatinine compared with the control (SD rats; Day 1): no significant differences | urinary SBP1 level (western blotting) (SD rats; Day 1): increased | BUN compared with the control (SD rats; Day 3): significantly increased | serum creatinine compared with the control (SD rats; Day 3): significantly increased | urinary SBP1 level compared with the control (SD rats; Day 3): highly increased | BUN, increase compared with the control (SD rats; Day 5): 3 to 5 fold | kidney tissue damage (histology) (SD rats; Day 5): most tubules were severely damaged | serum creatinine, increase compared with the control (SD rats; Day 5): 3 to 5 fold | urinary SBP1 level (western blotting) (SD rats; Day 5): detected at a very high level

CN(N=O)C(=O)N[C@@H](C=O)[C@@H](O)[C@H](O)[C@H](O)CO [STZ, streptozocin]
blood glucose level (Sprague-Dawley rat; [1]): ≥ 600 mg/dL | blood glucose level, increase compared to the control (Sprague-Dawley rat; [1]): ≥ 6 fold | BUN, increase compared to the control (Sprague-Dawley rat; STZ-administered group, rat): ≥ 2 fold | creatinine, increase compared to the control (Sprague-Dawley rat; STZ-administered group, rat): ≥ 2 fold | microalbumin in urine, increase compared to the control (Sprague-Dawley rat; STZ-administered group, rat): ≥ 10 fold | urine volume, increase compared to the control (Sprague-Dawley rat; diabetic animal induced by STZ administration): ≥ 3 fold

ClC(Cl)(Cl)Cl [carbon tetrachloride]
BUN (rat; [2]): no changes | SBP1 in urine (western blotting) (rat; [2]): not detected | creatinine (rat; [2]): no changes | ALT level compared with the control (rat; [3]): increased | AST level compared with the control (rat; [3]): increased | hepatotoxicity, liver histopathology (H&E staining) (rat; rat liver, from one day after administration): severe liver failure was observed
